Results on eleven compounds are retold here after ChEMBL document CHEMBL1201862, “PubChem BioAssay data set” (2004).

Some test systems named below: HCT-15; HCT-116; SW-620; NCI-H23; RPMI-8226; MOLT-4; SK-MEL-2; SF-295; HOP-92; MDA-MB-231; A549; OVCAR-4; UO-31; CAKI-1; Malme-3M; SF-268; Hs-578T; CCRF-CEM; UACC-257.
Common to all, as to test: NCI-60 cell line screen, 48 h

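Growth conditions: 96-well plates. Treatment: test compound, 48 hours, 5 concentrations. Analysis: linear interpolation between bracketing concentrations; unreached endpoints set to highest concentration. The concentration for 50% growth inhibition is given as GI50.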 The source made the active and inactive calls. Rule as the data show it: active = GI50 up to about 1.1 µM and inactive = higher.

Consider `CCCC1(N2C(=O)c3ccc4c5c(ccc(c35)C2=O)N(C2(CCC)CCCCC2)C4=O)CCCCC1`, for which the GI50 in the assay on HCT-15 is more than 100 µM; in the assay with HCT-116 it was > 100 µM (inactive); in the assay on SW-620, > 100 µM (inactive); in the assay on NCI-H23 it was > 100 µM (inactive); with RPMI-8226, > 100 µM (inactive); with MOLT-4, > 100 µM (inactive). Moreover, the GI50 in the assay with SK-MEL-2, with SF-295, in the assay with HOP-92, in the assay with MDA-MB-231, with A549 and with OVCAR-4 was > 100 µM (inactive) in each case. For the same compound, the GI50 with UO-31, with CAKI-1, in the assay with Malme-3M and in the assay with SF-268 was > 100 µM (inactive) throughout.

Turning to `COC(=O)CCn1cnc2c(SC)ncnc21`, the GI50 with Hs-578T, in the assay on HCT-116, in the assay with SW-620, with CCRF-CEM, with NCI-H23 and in the assay on RPMI-8226 was > 100 µM (inactive) in each case. The GI50 in the assay with MOLT-4, in the assay with SF-295, in the assay on HOP-92, in the assay with UACC-257, in the assay on MDA-MB-231 and with A549 was > 100 µM (inactive) each time. Moreover, the GI50 in the assay on OVCAR-4, in the assay on UO-31, in the assay on CAKI-1, in the assay on Malme-3M and in the assay on SF-268 was > 100 µM (inactive) throughout.

Turning to `COC(=O)[C@H](Cc1ccccc1)NP(=O)(O)OCC1OC(n2cc(C)c(=O)[nH]c2=O)CC1N=[N+]=[N-]` (stereo partly drawn), the GI50 in the assay on HCT-15 is more than 100 µM; with Hs-578T, > 100 µM (inactive); with HCT-116, > 100 µM (inactive); in the assay with SW-620 it was > 100 µM (inactive); in the assay on CCRF-CEM it was > 100 µM (inactive); in the assay on NCI-H23, > 100 µM (inactive). Besides, the GI50 in the assay on RPMI-8226, in the assay on MOLT-4, in the assay on SK-MEL-2, in the assay with SF-295, in the assay on HOP-92 and in the assay on UACC-257 was > 100 µM (inactive) each time. The GI50 with MDA-MB-231, with A549, in the assay on OVCAR-4, in the assay on UO-31, in the assay with CAKI-1 and in the assay with Malme-3M was > 100 µM (inactive) each time. The GI50 in the assay on SF-268 is > 100 µM (inactive).

On to `O=C(O)CCCc1ccc2c(c1)CC1(C2)Cc2ccc(CCCC(=O)O)cc2C1`, for which the GI50 with HCT-15 was more than 100 µM; with Hs-578T, > 100 µM (inactive); with HCT-116, > 100 µM (inactive); in the assay with CCRF-CEM, > 100 µM (inactive); with NCI-H23, > 100 µM (inactive); in the assay with RPMI-8226, > 100 µM (inactive). Further, the GI50 with MOLT-4, in the assay on SK-MEL-2, in the assay with SF-295, with HOP-92, with UACC-257 and with MDA-MB-231 was > 100 µM (inactive) in each case. Besides, the GI50 with A549, in the assay on OVCAR-4, in the assay on UO-31 and in the assay on Malme-3M was > 100 µM (inactive) throughout.

As for `CN1CC2=C(N=C(S)NC2c2ccccc2Cl)/C(=C/c2ccccc2Cl)C1` (stereo not drawn), the GI50 with HCT-15 was 64.1 µM; in the assay with Hs-578T, > 100 µM (inactive); with HCT-116, 30.9 µM (inactive); with SW-620 it was > 100 µM (inactive); in the assay on CCRF-CEM it was 28.8 µM (inactive); in the assay on NCI-H23, 43.2 µM (inactive). Further, the GI50 was 23 µM (inactive) with MOLT-4; 69 µM (inactive) with SK-MEL-2; 53.5 µM (inactive) in the assay on SF-295; 3.81 µM (inactive) with HOP-92; 55.8 µM (inactive) with UACC-257; 26.2 µM (inactive) in the assay on MDA-MB-231. The GI50 with A549 is 30.5 µM (inactive); in the assay on OVCAR-4 it was 14.3 µM (inactive); with UO-31, 25.6 µM (inactive); in the assay on CAKI-1 it was > 100 µM (inactive); with Malme-3M, 25.9 µM (inactive); with SF-268, 95.9 µM (inactive).

`CCSc1nc(=S)n(-c2ccccc2)c(C)c1C(C)=O`: the GI50 with HCT-15 is more than 100 µM; in the assay on Hs-578T it was > 100 µM (inactive); in the assay on HCT-116, > 100 µM (inactive); in the assay with SW-620, > 100 µM (inactive); in the assay on CCRF-CEM it was > 100 µM (inactive); with NCI-H23, > 100 µM (inactive). For the same compound, the GI50 in the assay with RPMI-8226, in the assay with MOLT-4, in the assay on SK-MEL-2, in the assay with SF-295, with HOP-92 and with UACC-257 was > 100 µM (inactive) throughout. The GI50 in the assay with MDA-MB-231, in the assay on A549, in the assay on OVCAR-4, in the assay on UO-31, with CAKI-1 and with Malme-3M was > 100 µM (inactive) in each case. Moreover, the GI50 with SF-268 was > 100 µM (inactive).

For `CC(=O)/C(=N\O)C(=O)Nc1ccc(Cl)cc1Cl`, the GI50 in the assay on HCT-15 was more than 100 µM; in the assay on HCT-116, > 100 µM (inactive); in the assay with SW-620, > 100 µM (inactive); in the assay with CCRF-CEM it was 19.1 µM (inactive); in the assay on NCI-H23 it was > 100 µM (inactive); with RPMI-8226, > 100 µM (inactive). Besides, the GI50 in the assay on MOLT-4, in the assay with SK-MEL-2, in the assay with SF-295, with HOP-92, with UACC-257 and in the assay on A549 was > 100 µM (inactive) throughout. The GI50 in the assay on OVCAR-4, in the assay with UO-31, with CAKI-1, in the assay with Malme-3M and in the assay with SF-268 was > 100 µM (inactive) in each case.

Regarding `Cn1/c(=N\c2ccc(Cl)cc2)sc2ccccc21`, the GI50 with HCT-15 was 8.15 µM; in the assay on Hs-578T, 62.4 µM (inactive); in the assay on HCT-116 it was 37 µM (inactive); with SW-620, 39.8 µM (inactive); in the assay on CCRF-CEM, > 100 µM (inactive); with NCI-H23, 38.9 µM (inactive). For the same compound, the GI50 is 92.3 µM (inactive) in the assay with RPMI-8226; 48.2 µM (inactive) with MOLT-4; 39.4 µM (inactive) with SK-MEL-2; 33.4 µM (inactive) in the assay with SF-295; 23.3 µM (inactive) in the assay with HOP-92; 35.7 µM (inactive) in the assay with UACC-257. Besides, the GI50 is 35.5 µM (inactive) with MDA-MB-231; 32.5 µM (inactive) in the assay on A549; > 100 µM (inactive) in the assay on OVCAR-4; 26.1 µM (inactive) in the assay on UO-31; 34 µM (inactive) in the assay with CAKI-1; 57.7 µM (inactive) in the assay with Malme-3M. Also, in the assay on SF-268, the GI50 is > 100 µM (inactive).

For `COC(=O)N[C@@H]1C[C@H]2CC[C@]1(O[Si](C(C)C)(C(C)C)C(C)C)C(=O)C2`, the GI50 with HCT-15 is 17.8 µM; in the assay on Hs-578T, 10.3 µM (inactive); in the assay on HCT-116, 18.5 µM (inactive); with SW-620 it was 27.7 µM (inactive); in the assay with CCRF-CEM it was 18 µM (inactive); in the assay on NCI-H23, 17.1 µM (inactive). The GI50 in the assay with RPMI-8226 is 15.8 µM (inactive); with MOLT-4, 24.3 µM (inactive); in the assay with SK-MEL-2, 17.4 µM (inactive); in the assay on SF-295 it was 14.7 µM (inactive); in the assay on HOP-92, 17.5 µM (inactive); in the assay with UACC-257, 11.8 µM (inactive). In addition, the GI50 in the assay on MDA-MB-231 was 20.5 µM (inactive); with A549, 14.3 µM (inactive); with OVCAR-4, 14.5 µM (inactive); in the assay with UO-31, 14.1 µM (inactive); in the assay on CAKI-1, 23.9 µM (inactive); in the assay with SF-268 it was 12.9 µM (inactive).

As to `CN(C)CC1CCCC/C1=N\OC(=O)c1ccccc1` (stereo not drawn), the GI50 in the assay on HCT-15 was more than 100 µM; with HCT-116, > 100 µM (inactive); in the assay on SW-620 it was > 100 µM (inactive); in the assay with CCRF-CEM it was > 100 µM (inactive); in the assay on NCI-H23, > 100 µM (inactive); with RPMI-8226, > 100 µM (inactive). For the same compound, the GI50 in the assay with MOLT-4, in the assay on SK-MEL-2, with SF-295, with HOP-92, with UACC-257 and in the assay with A549 was > 100 µM (inactive) in each case. Besides, the GI50 in the assay with OVCAR-4, in the assay with UO-31, with CAKI-1, with Malme-3M and in the assay with SF-268 was > 100 µM (inactive) each time.

In the case of `N#Cc1nc(C(O)c2ccccc2)oc1N` (stereo not drawn), the GI50 with Hs-578T, in the assay with HCT-116, in the assay on SW-620, with CCRF-CEM, in the assay on NCI-H23 and in the assay on RPMI-8226 was > 100 µM (inactive) throughout. The GI50 in the assay with MOLT-4, in the assay with SK-MEL-2, in the assay on SF-295, in the assay with HOP-92, in the assay with UACC-257 and in the assay with MDA-MB-231 was > 100 µM (inactive) each time. For the same compound, the GI50 with A549, with UO-31, with CAKI-1, with Malme-3M and in the assay on SF-268 was > 100 µM (inactive) in each case.
